# In patent publication EP0988300B1, “BENZO(5,6)CYCLOHEPTA(1,2-B)PYRIDINE DERIVATIVES FOR THE INHIBITION OF FARNESYL PROTEIN TRANSFERASE” (SCHERING CORPORATION, priority 1997, dated 1998):
# Experiments:
# human FPT = biological target: T1, human FPT (Homo sapiens, UniProt P49354+P49356); experiment: FPT pM IC50 Assay (scintillation proximity assay, biotin-CVLS and (1-3H)-FPP substrates); assay type: biochemical; settings: 30 pM human FPT, 176 nM FPP, 100 nM biotin-CVLS, 37° C for 1 hour
# T1 construct: made in house; host or cells: Baculovirus/Sf-9 insect cells
# Protocol: The enzymatic reaction is performed in 50 mM Tris, 5 µM ZnCl2, 5 mM MgCl2, 0.01 % Triton X-100, 5 mM dithiolthreitol (DTT), pH 7.7 (Buffer R) at 37° C for 1 hour. The purified human FPT (> 95 % pure) was derived from a Baculovirus/Sf-9 expression system. The peptide substrate used was biotin-CVLS (SynPep Corp., Dublin, CA) and (1-^3H)-FPP (21.5 Ci/mmol) was obtained from New England Nuclear Life Science Products (Boston, MA). Compounds were initially dissolved to a final concentration of 4 mg/ml in 100 % DMSO and then to 0.25 µg/ml in 100 % DMSO. Subsequent dilutions of the compound were performed in Buffer R.
# The enzymatic reaction is performed in a final volume of 100 µl. Reactions are carried out in a 96 well plate format. […] The reaction is stopped using 150 µl of the Stop Solution consisting of 1.3 mg/ml scintillation beads (strepavidin-coated scintillation proximity beads from. Amersham (Arlington Heights, IL), 250 mM EDTA, pH 8.0 and 0.5 % BSA. The radioactivity is measured after 20 minutes at room temperature.
# Compounds are evaluated for their ability to inhibit the reaction by measuring the concentration-dependent percent inhibition of the reaction. […] The enzymatic activity was recorded by measuring the CPM/well using a Wallac 1204 Betaplate BS liquid scintillation counter. […]
# COS Cell = COS Cell IC50 (Cell-Based Assay), procedures of WO 95/10516
# Protocol: FPT IC50 (inhibition of farnesyl protein transferase, in vitro enzyme assay) was determined following the assay procedures described in WO 95/10516, published April 20, 1995. GGPT IC50 (inhibition of geranylgeranyl protein transferase, in vitro enzyme assay), COS Cell IC50 (Cell-Based Assay), Cell Mat Assay, and anti-tumor activity (in vivo anti-tumor studies) could be determined by the assay procedures described in WO 95/10516. The disclosure of WO 95/10516 is incorporated herein by reference thereto.
# Human tumor cells = experiment: Soft Agar Assay (anchorage-independent growth, colony count after MTT staining); assay type: cell-based
# Protocol: Anchorage-independent growth is a characteristic of tumorigenic cell lines. Human tumor cells can be suspended in growth medium containing 0.3% agarose and an indicated concentration of a farnesyl transferase inhibitor. The solution can be overlayed onto growth medium solidified with 0.6% agarose containing the same concentration of farnesyl transferase inhibitor as the top layer. After the top layer is solidified, plates can be incubated for 10-16 days at 37°C under 5% CO2 to allow colony outgrowth. After incubation, the colonies can be stained by overlaying the agar with a solution of MTT (3-[4,5-dimethyl-thiazol-2-yl]-2,5-diphenyltetrazolium bromide, Thiazolyl blue) (1 mg/mL in PBS). Colonies can be counted and the IC50's can be determined.
Compound,IC50 (human FPT) [pM],IC50 (COS Cell) [nM],IC50 (Human tumor cells) [nM]
NC(=O)N1CCC(CC(=O)N2CCN([C@@H]3c4ccc(Cl)cc4CCc4cc(Br)c[n+]([O-])c43)CC2)CC1 [Example 10],410,,
NC(=O)N1CCC(CC(=O)N2CCC([C@@H]3c4c(Br)cc(Cl)cc4CCc4cc(Br)c[n+]([O-])c43)CC2)CC1 [Example 2],,9 to 85,25 to 183
O=C(Cc1cc[n+]([O-])cc1)N1CCN(C2c3ccc(Cl)cc3CCc3cc(Br)c[n+]([O-])c32)CC1 (centres unmarked) [Example 7],440,9 to 85,25 to 183
O=C(Cc1cc[n+]([O-])cc1)N1CCC([C@@H]2c3c(Br)cc(Cl)cc3CCc3cc(Br)c[n+]([O-])c32)CC1 [Example 3],,9 to 85,25 to 183
